In data set [1] the test system is neutrophils. In words: Phase I clinical trial of doxorubicin + HA (HyDox) in advanced cancer: toxicity, neutrophil counts. The following applies: HA 500 mg/m^2 with Dox 30-60 mg/m^2, three week cycle. It counts as in vivo, patients. The text has this:
The eligibility criteria, for inclusion in this study, were as follows: Patients must have advanced or metastatic cancer, histologically or cytologically confirmed. Patients were not to have had previous chemotherapy or were to have had no more than one prior chemotherapy regime and were not to have had prior anthracyclines. Patients were to be aged between 18 and 75 years with ambulatory performance status and adequate bone marrow, liver and renal function.
The treatment plan provided that, in the first chemotherapy cycle, patients be randomized to receive Dox alone or Dox plus HA. The converse applied in the second cycle. In the subsequent four cycles, patients received Dox plus HA. This allowed each patient to act as his/her own control in the toxicity analysis in the first two cycles, reducing the possibility of inter-patient variability affecting result interpretation.
Injectable sodium chloride was obtained from Baxter Healthcare, Sydney, Australia, as supplied as a 500 ml infusion bag.
Therefore, the initial dose level was 30 mg/m^2, the next 45 mg/m^2 and the next 60 mg/m^2.

The subject of data set [2] is blood cell sub-populations. In words: In vivo cytotoxicity (III), CMF±HA: bone marrow suppression (blood cell counts). More on the design: species or system Athymic CBA/WEHI nude female mice. The procedure: At the experimental end-point, when animals had to be euthanased due to degree of disease progression or when the 6-week treatment regimen was completed, the animals were anesthetized by a 0.1 ml intra-peritoneal injection of Nembutal (60 mg/ml), blood was collected, and the animals killed using cervical dislocation.
Erythrocyte, platelet and white blood cell numbers were estimated by making a 1/50- 1/2000 dilution of blood in mouse tenacity saline and counting on a hemocytometer. A blood smear was made and stained with Giemsa, thereby enabling a relative percentage quantification of neutrophils, lymphocytes, and […]. The total estimation of blood cell sub-populations was compared with published data for mouse blood.

The nature of data set [3]: In vivo cytotoxicity (III), CMF±HA: effect of treatment on organ mass. The following applies: mouse. Further details: species or system Athymic CBA/WEHI nude female mice. The text has this:
(§1) Immediately after killing the mouse, the tumor, liver, heart, spleen, bladder, left and right kidneys, uterus, lungs, stomach, intestines, brain and lymph nodes were excised and weighed, and placed in 10% v/v formalin. The tissue was fixed for 16-24 hrs before histological processing. Fixed tissue was dehydrated stepwise to 100% v/v ethanol and embedded in paraffin blocks from which 2-4 μm sections were placed on glass microscope slides. Staining the tissue sections with a hematoxylin nuclear stain and eosin cytoplasmic stain highlighted any pathological features that could indicate treatment toxicity.
The mass of each organ was calculated as a percentage of the overall net bodyweight, and compared to the organ masses of the saline only group.

Data set [4] is described as follows: In vivo cytotoxicity (III), CMF±HA: organ pathology (lungs, liver). Further details: species or system Athymic CBA/WEHI nude female mice.
Excerpt: as §1

Data set [5] is classed as in vivo. The following applies: 6-week regimen. The procedure: The overall survival time was calculated as the time (days or weeks) that the animal lived, after the commencement of treatment.
Data set [6] concerns neutrophils. The following applies: human, in vivo.
Experimental: The 5-FU±HA was given by intravenous administration over one hour on a four week cycle. The initial dose of 5-FU in this study was 450 mg/m^2 daily for three days and the dose of HA 500 mg/m^2 with each administration of 5-FU. Dose escalation occurred in two steps to reach the standard dose of 450 mg/m^2 for five consecutive days with each cycle. Therefore, the initial dose level was 450 mg/r^2 daily for three days, the next 450 mg/m^2 for four days and the final 450 mg/m^2 daily for five days.
Setting [7] is: HA days 1 and 3 (CMF, where given, days 2 and 4).

Like-named read-outs stand apart in the source and are kept apart here.

As for hyaluronan [HA], the “Effect on known toxicities of Dox in patients” value in data set [1] is “does not increase any of the known toxicities of Dox”. In addition, in data set [2] (setting [7]), the “Erthrocytes (Mean ± SD)” value was 8.78 ± 0.25 × 10^6/ul, the “Lymphocytes/Monocytes (Mean ± SD)” value came out at 47 ± 2%, the “Neutrophils/eosinophils/basophils (Mean ± SD)” value was 53 ± 2% and the “Platelets (Mean ± SD)” value was 1356 ± 41 × 10^3/ul. Also, the “White Cells (Mean ± SD)” value in data set [2] (setting [7]) is recorded as 6.15 ± 0.05 × 10^3/ul. Further, in data set [2] (administered days 1 and 2), the “Erthrocytes (Mean ± SD)” value is listed as 8.99 ± 0.13 × 10^6/ul, the “Lymphocytes/Monocytes (Mean ± SD)” value is on record as 47 ± 1%, the “Neutrophils/eosinophils/basophils (Mean ± SD)” value was determined as 53 ± 1% and the “Platelets (Mean ± SD)” value is listed as 1374 ± 7 × 10^3/ul. For the same substance, in data set [2] (administered days 1 and 2), the “White Cells (Mean ± SD)” value is on record as 6.15 ± 0.03 × 10^3/ul. Besides, the “Spleen mass compared to the untreated control” value in data set [3] was “significant enlargement of the spleen”. The “Liver: % with areas of focal liver necrosis/inflammation” value in data set [4] (liver pathology) is given as 25% with. In addition, the “Lungs: % with oedema and macrophage infiltrate” value in data set [4] (lung pathology) amounted to 12.5% with. Also, the “Survival time mean ± SEM” value in data set [5] (setting [7]) is on record as 42 ± 0 days. For the same substance, in data set [5] (administered days 1 and 2), the “Survival time mean ± SEM” value is reported as 42 ± 0 days. Further, in data set [6], the “Effect on known toxicities of 5-FU in patients” value was “does not increase any of the known toxicities of 5-FU”.

For the origin of these results see patent US20090306012A1, “THERAPEUTIC PROTOCOLS” (priority 2001, published 2009).
